According to patent US20260167960A1, “METHODS AND COMPOSITIONS INCLUDING CONJUGATED DNAZYMES” (priority 2022, published 2026):

Test system: K. pneumoniae biofilm on silicon-coated latex Foley catheter
Test: Flow-cell catheter-associated biofilm, CFU assay
Format: cell-based
Conditions: 2-hour perfusion; 750 or 1000 mcg/mL meropenem; FIG. 6A
Method: Catheters were then connected to a flow-cell system containing fresh 10% TSB, and fresh media was perfused through the catheter by a pump at 10 ml/hour at 37° C. After 24 hours, treatment solution was perfused into the catheter at 10 ml/hour at 37° C. for 2 hours. Bacteria were scraped from the catheter into 1 ml PBS, and decimal serial dilutions were performed. All dilutions were plated by drop-plating technique on LB agar plates. LB agar plates were incubated at 37° C., and CFU were counted the next morning.
To test the effect of conjugated DNAzymes on established, catheter-associated biofilms, K. pneumoniae were incubated in catheters for 2 hours in static conditions and then for 24 hours with fresh media flow, after which they were subject to a 2-hour perfusion with 750 or 1000 mcg/mL meropenem, alone or in combination with tocopherol-conjugated or cholesterol-conjugated DNAzymes. After the incubation, the tubing was cut open and bacteria were scraped from the inside of the tubing, after which the CFU were determined by replating and observing colony formation. […] When CFU formation was tested in plates containing a much lower concentration (10 mcg/mL) of meropenem, the prior treatment with conjugated DNAzymes+meropenem nearly completely abolished colony formation (FIG. 6B), showing that antibiotic resistance was largely, if not entirely, abrogated in the disrupted biofilms.

**Q.** With C[C@@H](O)[C@H]1C(=O)N2C(C(=O)O)=C(S[C@@H]3CN[C@H](C(=O)N(C)C)C3)[C@H](C)[C@H]12 [meropenem] as the compound, how does the “disruption of established catheter-associated biofilms (CFU)” value read?
**A.** not antibiotic alone, significantly disrupted the established biofilms
